Earlier results as cited in patent US20180028686A1 (priority 2014, published 2018).

System: RVFV

## NC(=O)c1ncn([C@@H]2O[C@H](CO)[C@@H](O)[C@H]2O)n1 [Ribavirin, ribavirin]
  IC50 values: low micromolar range
